What is called IC50 is the concentration at which inhibition is half-maximal.

3 compounds from patent US10526327B2, “Histone demethylase inhibitors” (CELGENE QUANTICEL RESEARCH, INC., priority 2013, dated 2020) can be followed below.

The assay deals with T1, Jarid1A (Homo sapiens, UniProt P29375).
T1 construct: purchased BPS Bioscience 50110
T1 sequence (P29375 1-1090): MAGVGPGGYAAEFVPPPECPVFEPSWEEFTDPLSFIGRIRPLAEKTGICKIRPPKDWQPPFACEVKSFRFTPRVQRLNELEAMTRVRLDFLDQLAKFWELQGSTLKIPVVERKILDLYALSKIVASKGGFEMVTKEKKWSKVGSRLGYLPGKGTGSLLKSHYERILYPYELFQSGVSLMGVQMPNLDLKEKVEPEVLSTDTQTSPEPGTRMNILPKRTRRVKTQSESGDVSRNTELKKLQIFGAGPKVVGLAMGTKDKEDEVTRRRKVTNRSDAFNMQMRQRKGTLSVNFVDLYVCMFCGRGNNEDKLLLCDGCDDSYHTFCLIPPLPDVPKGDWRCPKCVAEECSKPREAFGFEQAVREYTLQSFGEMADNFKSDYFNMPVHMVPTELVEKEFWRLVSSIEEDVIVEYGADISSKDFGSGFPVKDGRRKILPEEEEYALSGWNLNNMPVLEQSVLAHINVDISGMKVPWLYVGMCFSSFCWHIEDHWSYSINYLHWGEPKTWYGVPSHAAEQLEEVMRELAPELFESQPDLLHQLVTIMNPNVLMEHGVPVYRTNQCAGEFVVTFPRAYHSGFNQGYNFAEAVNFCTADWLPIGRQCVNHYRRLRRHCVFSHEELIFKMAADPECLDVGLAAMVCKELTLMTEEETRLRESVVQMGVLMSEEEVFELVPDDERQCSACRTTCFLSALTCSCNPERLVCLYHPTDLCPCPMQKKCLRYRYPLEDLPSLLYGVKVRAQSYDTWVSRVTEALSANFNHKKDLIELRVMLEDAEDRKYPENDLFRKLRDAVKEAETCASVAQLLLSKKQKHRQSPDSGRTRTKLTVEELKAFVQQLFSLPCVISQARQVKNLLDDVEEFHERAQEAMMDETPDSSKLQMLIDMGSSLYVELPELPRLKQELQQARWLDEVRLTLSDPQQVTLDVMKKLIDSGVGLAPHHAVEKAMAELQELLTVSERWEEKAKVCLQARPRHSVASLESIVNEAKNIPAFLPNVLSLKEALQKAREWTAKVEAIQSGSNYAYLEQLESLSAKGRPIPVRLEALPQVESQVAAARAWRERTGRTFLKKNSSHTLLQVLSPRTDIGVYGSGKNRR
Nature of the assay: Jarid1A in vitro enzyme inhibition assay (TR-FRET). The format is biochemical. The procedure, abridged:
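Demethylation of 300 nM biotin-H3K4me3 peptide by 1 nM baculovirus-expressed Jarid1A (aa 1–1090) with 2 μM α-ketoglutarate, Fe(II) and ascorbate, pH 7.3, 30 min at room temperature. Stopped with EDTA; H3K4me1-2 product detected by TR-FRET (Eu anti-H3K4me1-2/streptavidin-APC). IC50 fitted from 665/615 ratio over 11-point dilutions.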

Some results are limits rather than exact numbers.

For the compound `Oc1nc(OCCc2ccc(Cl)cc2)nc2cnccc12` [Example 174, 2-[2-(4-chlorophenyl)ethoxy]pyrido[3,4-d]pyrimidin-4-ol], the IC50 was no more than 0.1 µM.
For `Oc1nc(OCCc2ccc(Cl)c(Cl)c2)nc2cnccc12` [Example 175, 2-[2-(3,4-dichlorophenyl)ethoxy]pyrido[3,4-d]pyrimidin-4-ol] the value was 1 to 10 µM; for `Oc1nc(OC(c2ccccc2)C(F)(F)F)nc2cnccc12` (stereo not drawn) [Example 176, 2-(2,2,2-trifluoro-1-phenylethoxy)pyrido[3,4-d]pyrimidin-4-ol], 1 to 10 µM.
